The text below walks through data of US12162894B2, “Structural analog of Cyclotheonellazole A, and synthetic method therefor and application method thereof” (The Second People's Hospital of Shenzhen (Shenzhen …, priority 2022, dated 2024).

The target of this test is T1, Neutrophil Elastase (NE) (Homo sapiens, UniProt P08246).
T1 construct: purchased Abcam ab118971
T1 sequence (P08246 30-267): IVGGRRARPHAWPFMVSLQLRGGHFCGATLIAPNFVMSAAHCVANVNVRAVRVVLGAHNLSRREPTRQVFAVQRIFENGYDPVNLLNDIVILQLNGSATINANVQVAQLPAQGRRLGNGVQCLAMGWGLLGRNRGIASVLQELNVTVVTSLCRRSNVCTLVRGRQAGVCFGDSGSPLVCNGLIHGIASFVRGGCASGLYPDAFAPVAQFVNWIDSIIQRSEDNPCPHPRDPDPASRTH
Description: Inhibition of neutrophil elastase (NE), fluorescence kit (Abcam ab118971). Format: biochemical. As to conditions: 5 min pre-incubation at 37° C.; Ex/Em=400/505 nm; slope of fluorescence; read-out: IC50, enzyme activity of the NE. On the procedure:
An Inhabitation Effect of the TM to Neutrophil Elastase (NE)
• 1. Experimental materials include a NE protease detection kit (ab118971) of an Abcam company and TM. • 2. Experimental methods are as follows. In a black 96-well plate, a blank well group, a negative control well group and a sample well group are set, and a reaction system is 100 μL. The blank well group is added with 75 μL of buffer, the negative control well group is added with 50 μL of NE protease and 25 μL of buffer, the sample well group is added with 50 μL of NE protease and 25 μL of TM solution (respectively with concentrations of 0.00001 μM, 0.0001 μM, 0.001 μM, 0.003 μM, 0.01 μM 0.1 μM, 1 μM, and 10 μM), and the three groups are incubated at a temperature of 37° C. for 5 min. Each well is added with 25 μL of substrate, after mixing evenly, fluorescence value of each well is immediately detected at Ex/Em=400/505 nm, and is detected every 20 seconds, and a dynamic process within a range of 0-40 min is observed. Two different time points (T1 and T2) are selected within a linear range of the dynamic process to obtain fluorescence values (RFUT1 and RFUT2) corresponding to the time points, a slope of the fluorescence values is calculated, and the slope can be regarded as an enzyme activity of each well. […] A half inhibitory concentration (IC50) is calculated through the Origin 2021 software. • 3.

One may read the IC50 as the concentration needed to halve the response being measured. Consider `CCC[C@@H]1NC(=O)[C@@H](NC=O)CNC(=O)[C@H](CS(=O)(=O)O)NC(=O)/C=C/c2csc(n2)[C@H](Cc2ccc(O)cc2)NC(=O)C(=O)[C@H]([C@@H](C)CC)NC1=O` [TM], for which the IC50 turned out to be 1.27 nM.
